“And” between values parts separate entries of the source, which are not always exact repeats. Equal entries are not always repeated.
Tested on: MDCK cells
Experiment: MTT assay (cytotoxicity against MDCK cells)
Type: cell-based, canine
Conditions: MDCK cells; for MTT, DMSO as 100 (DMSOを 100として), ave / MTT 72h AVE (DMSO = 100): 72h; for MTT, DMSO as 100 (DMSOを 100として), ave: mean of 5 wells (200409 #1 and #3); for MTT 72h AVE (DMSO = 100): summary AVE; for MTT 24h, AVE (DMSO as 100) / MTT 24h, 570-650nm, DMSO as 100, ave: mean of 5 wells from 3 experiments; for MTT 24h, AVE (DMSO as 100): relative to DMSO = 100; for MTT 24h, 570-650nm, DMSO as 100, single replicate: individual wells (200331; 200403 #2 1,2; 200403 #3 1,2); for 570-650nm (MTT absorbance, single wells) / 570-650nm ave (mean MTT absorbance of 5 wells) / MTT absorbance with DMSO as 100 (DMSOを 100として), single wells: MTT 72h; for 570-650nm (MTT absorbance, single wells): experiments #1-#3, duplicate wells; for MTT absorbance with DMSO as 100 (DMSOを 100として), single wells: relative to mean of DMSO
Experimental: 1–5 (0.8–100 μM) were prepared in DMSO (100 μM, 1%; 50 μM, 0.5%; 25 μM, 0.25%; 12.5 μM, 0.125%; 6.3 μM, 0.063%; 3.1 μM, 0.031%; 1.6 μM, 0.016%; 0.8 μM, 0.008%) and mixed with infection medium (DMEM supplemented with 1% bovine serum albumin (BSA; Wako), P/S and 4 mM L-glutamine). The resulting mixture was added to the cells and incubated for 24 or 72 h at 37°C in the presence of 5% CO2. After incubation, cell viability was determined using an MTT cell count kit (Nacalai Tesque) according to the manufacturer’s instructions, as previously described.

[1] = 3.13uM (3.125uM in summary block)

## C=C[C@]1(C)CC[C@H](C(C)(C)O)[C@@H](c2ccc(O)cc2)C1 [Cyclo. C]
0.78uM
  MTT, DMSO as 100 (DMSOを 100として), ave: 97.7369
  570-650nm (MTT absorbance, single wells): 0.9938 and 0.7395 and 0.7311 and 0.6372 and 0.8862 and 0.7504
1.56uM
  MTT, DMSO as 100 (DMSOを 100として), ave: 116.194
  570-650nm (MTT absorbance, single wells): 0.9464 and 0.9776 and 0.7533 and 0.5791 and 0.9528 and 0.9569
3.125uM
  MTT, DMSO as 100 (DMSOを 100として), ave: 124.106
  MTT 24h, 570-650nm, DMSO as 100, single replicate: 98.8583 and 80.6936 and 68.9227 and 107.532 and 92.5261
  MTT 24h, 570-650nm, DMSO as 100, ave: 89.7067
6.25 (uM)
  MTT 72h AVE (DMSO = 100): 130.219
12.5 (uM)
  MTT 72h AVE (DMSO = 100): 123.122
25 (uM)
  MTT 72h AVE (DMSO = 100): 141.455
50 (uM)
  MTT 72h AVE (DMSO = 100): 116.495
100 (uM)
  MTT 72h AVE (DMSO = 100): 142.83
0.78 uM
  MTT 24h, AVE (DMSO as 100): 97.4262
1.56 uM
  MTT 24h, AVE (DMSO as 100): 89.4582
6.25uM
  MTT 24h, 570-650nm, DMSO as 100, single replicate: 105.442 and 92.9243 and 77.243 and 111.801 and 97.5139
  MTT 24h, 570-650nm, DMSO as 100, ave: 96.9849
  570-650nm ave (mean MTT absorbance of 5 wells): 0.8907
  570-650nm (MTT absorbance, single wells): 0.8518 and 0.8346 and 0.7398 and 1.0173 and 1.01 and 0.9632
  MTT absorbance with DMSO as 100 (DMSOを 100として), single wells: 122.018 and 108.158 and 148.728 and 147.661 and 124.532
12.5uM
  MTT 24h, 570-650nm, DMSO as 100, single replicate: 112.407 and 88.505 and 78.5484 and 110.111 and 102.316
  MTT 24h, 570-650nm, DMSO as 100, ave: 98.3774
  570-650nm ave (mean MTT absorbance of 5 wells): 0.98
  570-650nm (MTT absorbance, single wells): 0.9561 and 0.8827 and 0.8467 and 1.0013 and 1.1241 and 1.0452
  MTT absorbance with DMSO as 100 (DMSOを 100として), single wells: 125.798 and 106.375 and 131.313 and 141.226 and 110.898
25uM
  MTT 24h, 570-650nm, DMSO as 100, single replicate: 89.9468 and 93.8621 and 86.7762 and 109.435 and 109.619
  MTT 24h, 570-650nm, DMSO as 100, ave: 97.9279
  570-650nm ave (mean MTT absorbance of 5 wells): 1.064
  570-650nm (MTT absorbance, single wells): 0.9926 and 0.9592 and 0.9724 and 1.0619 and 1.1012 and 1.2247
  MTT absorbance with DMSO as 100 (DMSOを 100として), single wells: 141.191 and 129.291 and 162.837 and 146.417 and 127.536
50uM
  MTT 24h, 570-650nm, DMSO as 100, single replicate: 107.424 and 104.395 and 78.3927 and 112.047 and 113.734
  MTT 24h, 570-650nm, DMSO as 100, ave: 103.198
  570-650nm ave (mean MTT absorbance of 5 wells): 1.063
  570-650nm (MTT absorbance, single wells): 1.1675 and 1.0763 and 1.0296 and 0.8397 and 1.1252 and 1.245
  MTT absorbance with DMSO as 100 (DMSOを 100として), single wells: 92.0098 and 112.818 and 136.42 and 123.293 and 117.935
100uM
  MTT 24h, 570-650nm, DMSO as 100, single replicate: 113.671 and 119.568 and 104.628 and 127.474 and 126.723
  MTT 24h, 570-650nm, DMSO as 100, ave: 118.413
  570-650nm ave (mean MTT absorbance of 5 wells): 1.345
  570-650nm (MTT absorbance, single wells): 1.4551 and 1.3837 and 1.3254 and 1.1438 and 1.3954 and 1.4754
  MTT absorbance with DMSO as 100 (DMSOを 100として), single wells: 121.487 and 140.775 and 156.707 and 148.21 and 146.968
[1]
  570-650nm (MTT absorbance, single wells): 0.9669 and 0.8575 and 0.7479 and 0.8256 and 0.9 and 0.8489

## C=C[C@]1(C)CC[C@@H](C(C)(C)O)[C@H](c2ccc(O)cc2)C1 [Cyclo. D]
0.78uM
  MTT, DMSO as 100 (DMSOを 100として), ave: 98.8071
  570-650nm (MTT absorbance, single wells): 0.4378 and 0.7486 and 0.8741 and 0.5119 and 0.7887 and 0.8621
1.56uM
  MTT, DMSO as 100 (DMSOを 100として), ave: 117.006
3.125uM
  MTT, DMSO as 100 (DMSOを 100として), ave: 147.657
  MTT 24h, 570-650nm, DMSO as 100, single replicate: 84.6917 and 82.6734 and 92.4491 and 113.857 and 84.268
  MTT 24h, 570-650nm, DMSO as 100, ave: 91.5878
6.25 (uM)
  MTT 72h AVE (DMSO = 100): 128.371
12.5 (uM)
  MTT 72h AVE (DMSO = 100): 127.934
25 (uM)
  MTT 72h AVE (DMSO = 100): 145.717
50 (uM)
  MTT 72h AVE (DMSO = 100): 126.261
100 (uM)
  MTT 72h AVE (DMSO = 100): 126.655
0.78 uM
  MTT 24h, AVE (DMSO as 100): 97.8994
1.56 uM
  MTT 24h, AVE (DMSO as 100): 96.8321
6.25uM
  MTT 24h, 570-650nm, DMSO as 100, single replicate: 85.6335 and 89.7131 and 106.9 and 111.896 and 88.988
  MTT 24h, 570-650nm, DMSO as 100, ave: 96.6263
  570-650nm ave (mean MTT absorbance of 5 wells): 0.8781
  MTT absorbance with DMSO as 100 (DMSOを 100として), single wells: 79.8684 and 128.626 and 158.904 and 136.433 and 138.026
12.5uM
  MTT 24h, 570-650nm, DMSO as 100, single replicate: 81.4488 and 91.9219 and 102.896 and 113.782 and 96.5227
  MTT 24h, 570-650nm, DMSO as 100, ave: 97.3142
  570-650nm ave (mean MTT absorbance of 5 wells): 1.0183
  570-650nm (MTT absorbance, single wells): 0.9745 and 1.0068 and 0.9175 and 1.0063 and 1.0002 and 1.1607
  MTT absorbance with DMSO as 100 (DMSOを 100として), single wells: 126.426 and 115.27 and 145.824 and 125.66 and 126.489
25uM
  MTT 24h, 570-650nm, DMSO as 100, single replicate: 77.2963 and 96.4082 and 113.294 and 115.224 and 87.3126
  MTT 24h, 570-650nm, DMSO as 100, ave: 97.9071
  570-650nm ave (mean MTT absorbance of 5 wells): 1.096
  570-650nm (MTT absorbance, single wells): 1.0789 and 1.1027 and 0.9947 and 1.0822 and 1.1213 and 1.1788
  MTT absorbance with DMSO as 100 (DMSOを 100として), single wells: 143.89 and 132.256 and 156.734 and 149.089 and 146.616
50uM
  MTT 24h, 570-650nm, DMSO as 100, single replicate: 91.2134 and 100.963 and 94.7794 and 115.361 and 101.24
  MTT 24h, 570-650nm, DMSO as 100, ave: 100.712
  570-650nm ave (mean MTT absorbance of 5 wells): 1.152
  570-650nm (MTT absorbance, single wells): 1.148 and 1.1434 and 1.0891 and 1.1437 and 1.0821 and 1.3031
  MTT absorbance with DMSO as 100 (DMSOを 100として), single wells: 125.321 and 119.338 and 142.787 and 118.571 and 125.288
100uM
  MTT 24h, 570-650nm, DMSO as 100, single replicate: 94.6456 and 103.228 and 107.83 and 131.616 and 116.582
  MTT 24h, 570-650nm, DMSO as 100, ave: 110.78
  570-650nm ave (mean MTT absorbance of 5 wells): 1.192
  570-650nm (MTT absorbance, single wells): 1.3579 and 1.2781 and 1.2394 and 0.9368 and 1.1592 and 1.3488
  MTT absorbance with DMSO as 100 (DMSOを 100として), single wells: 99.5008 and 131.641 and 143.261 and 123.123 and 135.751
[1]
  570-650nm (MTT absorbance, single wells): 0.9735 and 1.011 and 0.8858 and 1.0444 and 0.9175 and 1.1144

From PMC7997032, “Organic synthesis and anti-influenza A virus activity of cyclobakuchiols A, B, C, and D” (PLoS ONE, 2021)
